Tested on: a variety of test species
Assay: Post-emergence herbicidal activity
Assay type: in vivo
Design: key to ABUTH (Abutilon theophrasti) damage score / AMARE (Amaranthus retroflexus) damage score / ALOMY (Alopecurus myosuroides) damage score / ECHCG (Echinochloa crus-galli) damage score / ZEAMX (Zea mays) damage score / SOLNI (Solanum nigrum) damage score: 0 = no damage to plant, 5 = total damage to plant
Conditions: rate 1000 g/ha, evaluated after 13 days
Protocol: Seeds of a variety of test species were sown in standard soil in pots. After 8 days cultivation (post-emergence) under controlled conditions in a glasshouse (at 24/16° C., day/night; 14 hours light; 65% humidity), the plants were sprayed with an aqueous spray solution derived from the formulation of the technical active ingredient in acetone/water (50:50) solution containing 0.5% Tween 20 (polyoxyethelyene sorbitan monolaurate, CAS RN 9005-64-5). The test plants were then grown in a glasshouse under controlled conditions (at 24/16° C., day/night; 14 hours light; 65% humidity) and watered twice daily. After 13 days, the test was evaluated (5=total damage to plant; 0=no damage to plant, NC=not captured).

Row | SMILES | ABUTH (Abutilon theophrasti) damage score | ALOMY (Alopecurus myosuroides) damage score | AMARE (Amaranthus retroflexus) damage score | ECHCG (Echinochloa crus-galli) damage score | SETFA (Setaria faberi) damage score | ZEAMX (Zea mays) damage score | SOLNI (Solanum nigrum) damage score
1 | COC1=C(C)C(=O)N(c2cc(C(F)(F)F)c(Cl)cn2)C1O (stereo not drawn) [AD30] | 5 | 5 | 5 | 5 | 4 | 1 | 
2 | COC1=C(C)C(=O)N(c2cc(C(F)(F)F)c(Br)cn2)C1O (stereo not drawn) [AD31, 1-[5-bromo-4-(trifluoromethyl)-2-pyridyl]-2-hydroxy-3-methoxy-4-methyl-2H-pyrrol-5-one] | 5 | 5 | 5 | 5 | 4 | 1 | 
3 | C=Cc1ccc(N2C(=O)C(C)=C(OC)C2O)nc1 (stereo not drawn) [AD33] | 2 | 1 | 1 | 3 | 2 | 0 | 
4 | COC1=C(C)C(=O)N(c2cc(C(F)(F)F)ccn2)C1O (stereo not drawn) [AD34] | 5 | 5 | 5 | 5 | 5 | 0 | 
5 | COC1=C(C)C(=O)N(c2ccc(C(F)(F)F)cn2)C1O (stereo not drawn) [AD35] |  | 3 | 5 | 3 | 4 | 0 | 5
6 | COC(=O)c1cnc(N2C(=O)C(C)=C(OC)C2O)cc1C(F)(F)F (stereo not drawn) [AD37] | 4 | 3 | 5 | 3 | 2 | 0 | 
7 | COC1=C(C)C(=O)N(c2cc(C(F)(F)F)c(/C(C)=C/C#N)cn2)C1O (stereo not drawn) [AD38, (E)-3-[6-(2-hydroxy-3-methoxy-4-methyl-5-oxo-2H-pyrrol-1-yl)-4-(trifluoromethyl)-3-pyridyl]but-2-enenitrile] | 5 | 5 | 5 | 5 | 5 | 0 | 
8 | COC1=C(C)C(=O)N(c2cc(OC(F)(F)F)ccn2)C1O (stereo not drawn) [AD39] | 4 | 4 | 2 | 4 | 4 | 0 | 
9 | COC1=C(C)C(=O)N(c2cc(C(C)(C)C)ccn2)C1O (stereo not drawn) [AD40] | 5 | 5 | 5 | 5 | 5 | 3 | 
10 | C=CCOC1=C(C)C(=O)N(c2cc(C(F)(F)F)ccn2)C1O (stereo not drawn) [AD42] | 5 | 4 | 5 | 5 | 5 | 2 | 
11 | CC1=C(OCC(F)(F)F)C(O)N(c2cc(C(F)(F)F)ccn2)C1=O (stereo not drawn) [AD44, 2-hydroxy-4-methyl-3-(2,2,2-trifluoroethoxy)-1-[4-(trifluoromethyl)-2-pyridyl]-2H-pyrrol-5-one] | 5 | 3 | 5 | 4 | 5 | 1 | 
12 | CCOC1=C(C)C(=O)N(c2cc(C(F)(F)F)ccn2)C1O (stereo not drawn) [AD45, 3-ethoxy-2-hydroxy-4-methyl-1-[4-(trifluoromethyl)-2-pyridyl]-2H-pyrrol-5-one] | 5 | 4 | 5 | 5 | 3 | 1 | 
13 | COC1=C(C)C(=O)N(c2ccc(OC(F)(F)F)cn2)C1O (stereo not drawn) [AD47] | 5 | 3 | 5 | 3 | 4 | 0 | 
14 | COC1=C(C)C(=O)N(c2cc(C(F)(F)F)c(I)cn2)C1O (stereo not drawn) [AD51] | 5 | 4 | 5 | 5 | 5 | 1 | 
15 | COC1=C(C)C(=O)N(c2cc(C(C)(C)CCl)ccn2)C1O (stereo not drawn) [AD52] | 5 | 5 | 4 | 5 | 5 | 1 | 
16 | COC1=C(C)C(=O)N(c2cc(C(F)(F)F)c(C(=O)NC(C)C)cn2)C1O (stereo not drawn) [AD53] | 5 | 5 | 5 | 5 | 5 | 5 | 
17 | COC1=C(C)C(=O)N(c2cc(C(F)(F)F)c(C(=O)NC(C)(C)C)cn2)C1O (stereo not drawn) [AD54] | 5 | 5 | 5 | 5 | 5 | 5 | 
18 | CCOc1cnc(N2C(=O)C(C)=C(OC)C2O)cc1C(F)(F)F (stereo not drawn) [AD55] | 5 | 5 | 5 | 5 | 5 | 3 | 
19 | COC1=C(C)C(=O)N(c2cc(C(F)(F)F)c(OCC(C)C)cn2)C1O (stereo not drawn) [AD56] | 5 | 5 | 5 | 5 | 5 | 0 | 
20 | COC1=C(C)C(=O)N(c2cc(C(F)(F)F)c(OCC3CCCO3)cn2)C1O (stereo not drawn) [AD57] | 5 | 4 | 5 | 5 | 5 | 1 | 
21 | COC1=C(C)C(=O)N(c2cc(C(F)(F)F)c(/C(C)=C\C#N)cn2)C1O (stereo not drawn) [AD58, (Z)-3-[6-(2-hydroxy-3-methoxy-4-methyl-5-oxo-2H-pyrrol-1-yl)-4-(trifluoromethyl)-3-pyridyl]but-2-enenitrile] | 5 | 4 | 5 | 5 | 5 | 2 | 
22 | COC1=C(C)C(=O)N(c2cc(C(F)(F)F)c(-c3ccc(F)cc3)cn2)C1O (stereo not drawn) [AD59] | 5 | 4 | 5 | 4 | 5 | 1 | 
23 | COC1=C(C)C(=O)N(c2cc(C)c(-c3ccc(F)cc3)cn2)C1O (stereo not drawn) [AD60] | 5 | 2 | 5 | 1 | 4 | 1 | 
24 | COC1=C(C)C(=O)N(c2cc(C)c(-c3ccsc3)cn2)C1O (stereo not drawn) [AD61] | 5 | 1 | 5 | 3 | 4 | 1 | 
25 | CCc1cc(N2C(=O)C(C)=C(OC)C2O)ncc1-c1ccc(F)cc1 (stereo not drawn) [AD62] | 4 | 3 | 5 | 3 | 5 | 0 | 
26 | COC1=C(C)C(=O)N(c2cc(C)c(-c3ccccc3)cn2)C1O (stereo not drawn) [AD63] | 5 | 3 | 5 | 3 | 5 | 1 | 
27 | COC1=C(C)C(=O)N(c2cc3c(cn2)CCCC3)C1O (stereo not drawn) [AD64] | 4 | 1 | 2 | 3 | 5 | 1 | 
28 | COC1=C(C)C(=O)N(c2cc(C)c(-c3ccc(F)cc3C)cn2)C1O (stereo not drawn) [AD65] | 4 | 2 | 5 | 4 | 5 | 1 | 

Source: patent publication US9611248B2, “Chemical compounds” (Syngenta Participations AG, priority 2013, dated 2017)
